Assay results published in patent US8507507B2, “Modulators of toll-like receptors” (Gilead Sciences, Inc., priority 2009, dated 2013).

These molecules were tested on human Peripheral Blood Mononuclear Cell (PMBC) (assay: PBMC assay: cytokine (IFN-α) stimulation at 24 hours). Conditions: Homo sapiens, PBMC, 24 h, IFN-α in supernatant (Luminex), three fold above background, read-out: MEC = minimum concentration for induction of IFN-alpha = 3-fold over background.
Assay type: cell-based
Protocol: Assays were conducted to determine cytokine stimulation at 24 hours from human Peripheral Blood Mononuclear Cell (PMBC) using the compounds of the present invention. The assays were run in duplicate, with 8-point, half-log dilution curves. The compounds of the present invention were diluted from 10 mM DMSO solution. Cell supernatants are assayed directly for IFNα and 1:10 dilution for TNFα. The assays were performed in a similar fashion as described in Bioorg. Med. Chem. Lett. 16, 4559, (2006). Specifically, cryo-preserved PBMCs were thawed and seeded 96 well plates with 750,000 cells/well in 190 μL/well cell media. The PBMCs were then incubated for 1 hour at 37° C. at 5% CO2. Then, the compounds of the present invention were added in 10 μL cell media at 8 point, half-log dilution titration. The plates were incubated at 37° C. and 5% CO2 for 24 hours and then spinned at 1200 rpm for 10 min, which was followed by collecting supernatant and storing the same at −80° C. Cytokine secretion was assayed with Luminex® (brand of Multiplexing bead-based platform, Luminx® Corporation Austin Tex. USA) and Upstate Biosciences® (Upstate Biosciences®, Charlottesville, Va., USA) multi-plex kits, using a Luminex® analysis instrument. IFN MEC value for a compound was the minimum concentration at which IFN-α production stimulated by the compound reached three fold above background, as determined using the assay method above.
In the case of `Nc1nc(OCC2CCOCC2)nc2c1[nH]c(=O)n2Cc1ccc(-c2cccc(CN3CCCC3)c2)cc1` [AQ], the minimal effective concentration was 0.001 µM.
`CCCCOc1nc(N)c2[nH]c(=O)n(Cc3ccc(-c4ccc(CN5CCCC5)cc4)cn3)c2n1` [J] gave a minimal effective concentration of 0.001 µM.
`Nc1nc(OCC2CCOCC2)cc2c1[nH]c(=O)n2Cc1ccc(-c2cccc(CN3CCCC3)c2)nc1` [BD] was tested, and the minimal effective concentration was 0.001 µM.
For `COCCOc1nc(N)c2[nH]c(=O)n(Cc3ccc(-c4ccc(CN5CCCC5)cc4)nc3)c2n1` [AF], the minimal effective concentration was 0.001 µM.
Molecule `COCCOc1nc(N)c2[nH]c(=O)n(Cc3cc(-c4cccc(CN5CCCC5)c4)ccc3Cl)c2n1` [AA] has a minimal effective concentration of 0.1 to 1 µM.
For `COCCOc1nc(N)c2[nH]c(=O)n(Cc3ccc(-c4ccc(CN5CCCC5)cc4)c(F)c3)c2n1` [AL], the minimal effective concentration was 0.001 µM.
In the case of `Nc1nc(OCC2CCOCC2)nc2c1[nH]c(=O)n2Cc1ccc(-c2ccc(CN3CCCC3)cc2)c(C(F)(F)F)c1` [AS], the minimal effective concentration was 0.001 µM.
`CCCCOc1nc(N)c2[nH]c(=O)n(Cc3ccc(-c4cccc(CN5CCCC5)c4)nc3)c2n1` [G] gave a minimal effective concentration of 0.001 µM.
`COCCOc1nc(N)c2[nH]c(=O)n(Cc3ccc(-c4cccc(CN5CCCCC5)c4)cc3)c2n1` [W] showed a minimal effective concentration of 0.001 µM.
`CCCCOc1nc(N)c2[nH]c(=O)n(Cc3ccc(-c4cccc(CN5CCCC5)c4)cn3)c2n1` [K] showed a minimal effective concentration of 0.001 µM.
`CCCCOc1nc(N)c2[nH]c(=O)n(Cc3ccc(-c4ccc(CN5CCCC5)c(F)c4)cc3)c2n1` [S] was tested, and the minimal effective concentration was 0.001 µM.
For `COCCOc1nc(N)c2[nH]c(=O)n(Cc3ccc(-c4ccc(CN5CCCC5)cc4)c(Cl)c3)c2n1` [AI], the minimal effective concentration was 0.001 µM.
Molecule `COCCOc1nc(N)c2[nH]c(=O)n(Cc3ccc(-c4cc(CN5CCCC5)cc(C(F)(F)F)c4)cc3)c2n1` [AM] has a minimal effective concentration of 0.01 to 0.099 µM.
With `CCCCOc1nc(N)c2[nH]c(=O)n(Cc3ccc(-c4ncc(CN5CCCC5)s4)cc3)c2n1` [Q] the minimal effective concentration was 0.001 µM.
`CCCCOc1nc(N)c2[nH]c(=O)n(Cc3cccc(-c4ccc(CN5CCCC5)cc4)c3)c2n1` [C] was tested, and the minimal effective concentration was 0.001 to 0.009 µM.
With `Nc1nc(OCC2CCOCC2)nc2c1[nH]c(=O)n2Cc1ccc(-c2ccc(CN3CCCC3)cc2)cc1` [AR] the minimal effective concentration was 0.001 µM.
`Nc1nc(OCC2CCOCC2)nc2c1[nH]c(=O)n2Cc1ccc(-c2cccc(CN3CCCC3)c2)c(C(F)(F)F)c1` [AT] showed a minimal effective concentration of 0.001 µM.
`Nc1nc(OCC2CCOCC2)nc2c1[nH]c(=O)n2Cc1ccc(-c2ccc(CN3CCCC3)cn2)cc1` [AV] gave a minimal effective concentration of 0.001 µM.
Molecule `CCN1CCc2ncc(-c3ccc(Cn4c(=O)[nH]c5c(N)nc(OCCOC)nc54)cc3)cc2C1` [AE] has a minimal effective concentration of 0.001 µM.
Molecule `CCCCOc1cc2c([nH]c(=O)n2Cc2ccc(-c3ccc(CN4CCCC4)cc3)cc2)c(N)n1` [BC] has a minimal effective concentration of 0.001 µM.
Molecule `CCCCOc1nc(N)c2[nH]c(=O)n(Cc3ccc(-c4nc(CN5CCCC5)cs4)cc3)c2n1` [P] has a minimal effective concentration of 0.001 µM.
Work on `COCCOc1nc(N)c2[nH]c(=O)n(Cc3ccc(-c4ccc(CCCN5CCCC5)nc4)cc3)c2n1` [AP] yielded a minimal effective concentration of 0.001 µM.
With `Nc1nc(OCC2CCOCC2)cc2c1[nH]c(=O)n2Cc1ccc(-c2ccc(CN3CCCC3)cc2)nc1` [BE] the minimal effective concentration was 0.001 µM.
Work on `CCCCOc1nc(N)c2[nH]c(=O)n(Cc3ccc(-c4cccc(CN5CCCC5)c4)cc3)c2n1` [E] yielded a minimal effective concentration of 0.001 µM.
In the case of `CCCCOc1nc(N)c2[nH]c(=O)n(Cc3ccc(-c4ccc(CN5CCCC5)cc4)cc3)c2n1` [F], the minimal effective concentration was 0.001 µM.
Molecule `COCCOc1nc(N)c2[nH]c(=O)n(Cc3ccc(-c4cccc(CN5CCCC5)c4)nc3)c2n1` [AG] has a minimal effective concentration of 0.001 µM.
`CCCCOc1nc(N)c2[nH]c(=O)n(Cc3cnc(-c4cccc(CN5CCCC5)c4)s3)c2n1` [L] showed a minimal effective concentration of 0.001 µM.
With `CCCCOc1nc(N)c2[nH]c(=O)n(Cc3ccnc(-c4ccc(CN5CCCC5)cc4)c3)c2n1` [I] the minimal effective concentration was 0.001 µM.
Work on `COCCOc1nc(N)c2[nH]c(=O)n(Cc3ccc(-c4cccc(CN5CCOCC5)c4)cc3)c2n1` [Y] yielded a minimal effective concentration of 0.001 to 0.009 µM.
`Nc1nc(OCC2CCOCC2)cc2c1[nH]c(=O)n2Cc1ccc(-c2ccc(CN3CCCC3)cc2)cc1` [AZ] was tested, and the minimal effective concentration was 0.001 µM.
`COCCOc1nc(N)c2[nH]c(=O)n(Cc3ccc(-c4ccc(C(C)N5CCCC5)cc4)cc3)c2n1` (centres unmarked) [V] was tested, and the minimal effective concentration was 0.001 µM.
`Nc1nc(OCC2CCOCC2)cc2c1[nH]c(=O)n2Cc1ccc(-c2ccc(CN3CCCC3)nc2)cc1` [BA] gave a minimal effective concentration of 0.001 µM.
In the case of `COCCOc1nc(N)c2[nH]c(=O)n(Cc3ccc(-c4ccc(CN5CCCC5)nc4)cc3)c2n1` [AD], the minimal effective concentration was 0.001 µM.
With `CCCCOc1nc(N)c2[nH]c(=O)n(Cc3ccc(-c4ccc(CN5CCCC5)cc4)nc3)c2n1` [H] the minimal effective concentration was 0.001 µM.
`COCCOc1nc(N)c2[nH]c(=O)n(Cc3ccc(-c4ccc(CN5CCOCC5)cc4)cc3)c2n1` [X] showed a minimal effective concentration of 0.001 µM.
`CCCCOc1nc(N)c2[nH]c(=O)n(Cc3cnc(-c4ccc(CN5CCCC5)cc4)s3)c2n1` [Example M] gave a minimal effective concentration of 0.001 µM.
For `COCCOc1nc(N)c2[nH]c(=O)n(Cc3ccc(-c4cccc(CN5CCN(C)CC5)c4)cc3)c2n1` [Z], the minimal effective concentration was 0.001 µM.
`Nc1nc(OCC2CCOCC2)nc2c1[nH]c(=O)n2Cc1ccc(-c2ccc(CN3CCCC3)nc2)cc1` [AU] gave a minimal effective concentration of 0.001 µM.
For `CCCCOc1nc(N)c2[nH]c(=O)n(Cc3cccc(-c4ccccc4CN4CCCC4)c3)c2n1` [A], the minimal effective concentration was 0.1 to 1 µM.
For `CCCCOc1cc2c([nH]c(=O)n2Cc2ccc(-c3cccc(CN4CCCC4)c3)nc2)c(N)n1` [BF], the minimal effective concentration was 0.001 µM.
`CCCCOc1nc(N)c2[nH]c(=O)n(Cc3ccc(-c4ccccc4CN4CCCC4)cc3)c2n1` [D] was tested, and the minimal effective concentration was 0.001 µM.
`CCCCOc1nc(N)c2[nH]c(=O)n(Cc3ccc(-c4cc(CN5CCCC5)ccc4OC)cc3)c2n1` [R] showed a minimal effective concentration of 0.001 µM.
`CCCCOc1nc(N)c2[nH]c(=O)n(Cc3ccc(-c4ccc(CN5CCCC5)cn4)cc3)c2n1` [O] gave a minimal effective concentration of 0.001 µM.
Molecule `COCCOc1nc(N)c2[nH]c(=O)n(Cc3ccc(-c4ccc(CN5CCCC5)cc4)cc3)c2c1Cl` [AY] has a minimal effective concentration of 0.01 to 0.099 µM.
`COCCOc1nc(N)c2[nH]c(=O)n(Cc3cc(-c4ccc(CN5CCCC5)cc4)ccc3Cl)c2n1` [AB] was tested, and the minimal effective concentration was 0.1 to 1 µM.
Molecule `COCCOc1nc(N)c2[nH]c(=O)n(Cc3ccc(-c4ccc(CN5CCCC5)cc4)c(C(F)(F)F)c3)c2n1` [AN] has a minimal effective concentration of 0.001 µM.
`COCCOc1nc(N)c2[nH]c(=O)n(Cc3ccc(-c4ccc(CN5CCCC5)cn4)cc3)c2n1` [AC] gave a minimal effective concentration of 0.001 µM.
With `CCCCOc1nc(N)c2[nH]c(=O)n(Cc3cccc(-c4cccc(CN5CCCC5)c4)c3)c2n1` [B] the minimal effective concentration was 0.01 to 0.099 µM.
`COCCOc1nc(N)c2[nH]c(=O)n(Cc3ccc(-c4ccc(CN5CCCC5)cc4)cc3F)c2n1` [AJ] was tested, and the minimal effective concentration was 0.001 µM.
Molecule `COCCOc1nc(N)c2[nH]c(=O)n(Cc3ccc(-c4cccc(CN5CCCC5)c4)c(C(F)(F)F)c3)c2n1` [AO] has a minimal effective concentration of 0.001 µM.
For `COCCOc1nc(N)c2[nH]c(=O)n(Cc3ccc(-c4ccc(CN5CCCC5)cc4)cc3C#N)c2n1` [AK], the minimal effective concentration was 0.001 µM.
`CCCCOc1cc2c([nH]c(=O)n2Cc2ccc(-c3ccc(CN4CCCC4)cc3)nc2)c(N)n1` [BG] was tested, and the minimal effective concentration was 0.001 µM.
For `Nc1nc(OCC2CCOCC2)cc2c1[nH]c(=O)n2Cc1ccc(-c2csc(CN3CCCC3)n2)cc1` [BB], the minimal effective concentration was 0.001 to 0.009 µM.
`COCCOc1nc(N)c2[nH]c(=O)n(Cc3ccc(-c4ccc(CN5CCCC5)cc4)cc3)c2n1` [U] was tested, and the minimal effective concentration was 0.001 µM.
Work on `COCCOc1nc(N)c2[nH]c(=O)n(Cc3ccc(-c4cccc(CN5CCCC5)c4)cc3)c2n1` [T] yielded a minimal effective concentration of 0.001 µM.
`CCCCOc1nc(N)c2[nH]c(=O)n(Cc3ccc(-c4ccc(CN5CCCC5)nc4)cc3)c2n1` [N] was tested, and the minimal effective concentration was 0.001 µM.
Molecule `COCCOc1nc(N)c2[nH]c(=O)n(Cc3ccc(-c4ccc(CN5CCCC5)cc4)cc3Cl)c2n1` [AH] has a minimal effective concentration of 0.001 µM.

Same assay, conditions: IFN-α in supernatant (Luminex), three fold above background
For `COCCOc1nc(N)c2[nH]c(=O)n(Cc3ccc(-c4ccc(CN5CCCC5)cc4)cc3)c2n1` [AX], the “MEC = minimum concentration for induction of IFN-alpha = 3-fold over background” value was “b (b: 1 nM-9 nM)”.

Same assay, conditions: IFN-α in supernatant (Luminex), three fold above background, read-out: MEC = minimum concentration for induction of IFN-alpha = 3-fold over background
`COCCOc1cc2c([nH]c(=O)n2Cc2ccc(-c3cccc(CN4CCCC4)c3)cc2)c(N)n1` [AW] was tested, and the minimal effective concentration was 0.001 to 0.009 µM.
